Measurements taken from paper PMC11455950, “Effects of SZV-2649, a new multiple ion channel inhibitor mexiletine analogue” (Scientific Reports, 2024).

Biological target: T1, GIRK1 (Kir3.1/3.4) potassium channel (Homo sapiens, UniProt P48544+P48549)
T1 construct: host or cells: HEK293
T1 sequence (P48549 1-501): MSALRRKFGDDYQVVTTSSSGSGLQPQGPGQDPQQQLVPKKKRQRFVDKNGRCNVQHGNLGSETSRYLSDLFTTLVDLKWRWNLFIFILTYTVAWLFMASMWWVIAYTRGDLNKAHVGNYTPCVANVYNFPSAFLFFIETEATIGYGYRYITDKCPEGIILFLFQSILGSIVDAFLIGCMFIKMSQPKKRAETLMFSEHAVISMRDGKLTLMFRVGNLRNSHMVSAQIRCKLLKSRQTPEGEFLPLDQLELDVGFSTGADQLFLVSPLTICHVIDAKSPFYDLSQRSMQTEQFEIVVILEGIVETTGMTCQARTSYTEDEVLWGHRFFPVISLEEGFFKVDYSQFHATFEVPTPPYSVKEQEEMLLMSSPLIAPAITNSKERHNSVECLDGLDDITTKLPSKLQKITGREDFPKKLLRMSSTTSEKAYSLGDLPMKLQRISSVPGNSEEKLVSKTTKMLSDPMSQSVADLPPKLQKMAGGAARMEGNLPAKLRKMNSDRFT
T1 sequence (P48544 1-419): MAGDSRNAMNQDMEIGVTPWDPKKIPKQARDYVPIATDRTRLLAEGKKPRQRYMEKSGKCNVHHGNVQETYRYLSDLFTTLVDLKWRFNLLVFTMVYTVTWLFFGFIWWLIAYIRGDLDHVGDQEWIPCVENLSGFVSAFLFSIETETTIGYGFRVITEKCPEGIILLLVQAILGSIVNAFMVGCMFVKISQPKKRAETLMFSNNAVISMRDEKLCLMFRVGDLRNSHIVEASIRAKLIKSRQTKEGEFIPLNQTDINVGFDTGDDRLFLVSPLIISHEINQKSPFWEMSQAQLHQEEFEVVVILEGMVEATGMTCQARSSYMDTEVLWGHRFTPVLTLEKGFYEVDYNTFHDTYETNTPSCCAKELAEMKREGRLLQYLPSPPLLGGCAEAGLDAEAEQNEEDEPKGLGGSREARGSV
Experiment: Automated planar patch-clamp, GIRK current in HEK cells
Format: cell-based
Details: HEK cells (abstract)
Text: Inhibition of the hERG channel, the pore forming α-subunit of the native IKr cardiac potassium channel, is expected to prolong repolarization both in the atria and in the ventricles. The GIRK channel is the pore forming α-subunit of the acetylcholine-activated potassium channel and plays an important role in atrial electrophysiology. Its inhibition can be expected to decrease the acetylcholine-activated potassium current (IKACh), a current that plays an important role in the pathogenesis of AF. Therefore, the effects of SZV-2649 on the hERG and GIRK ion channels were studied by the planar patch-clamp technique in mammalian HEK cell lines stably expressing these channels.
The currents conducted by the hERG and GIRK channels were measured by using planar patch-clamp technology[,[47],[68] in the whole-cell configuration with a four-channel medium-throughput fully automated patch-clamp platform (Patchliner Quattro, Nanion Technologies GmbH, Munich, Germany) with integrated temperature control. […]
For GIRK current measurements (see Fig. 2.), the internal solution was (in mM): K-gluconate 40, NaCl 20, KF 60, EGTA 20 and HEPES 10 (pH 7.2, KOH) supplemented with 0.9 mM GTP before experiments to induce channel activation. […] The invard currents were calculated from the − 140 mV segment. […]

CC(N)COc1c(I)cc(C#N)cc1I.Cl (stereo not shown) [SZV-2649, 4-(2-aminopropoxy)-3,5-diiodobenzonitrile hydrochloride]
IC50: 529 nM
